According to patent US20220170930A1, “METHOD FOR SCREENING COMPOUND FOR TREATING OR PREVENTING POLYQ-RELATED NEURODEGENERATIVE DISEASES” (FUDAN UNIVERSITY, priority 2019, published 2022):

What was measured:
flHTT-Q73 = target: T1, flHTT-Q73 (Homo sapiens, UniProt P42858, INS38QQQQQQQQQQQQQQQQQQQQQQQQQQQQQQQQQQQQQQQQQQQQQQQQQQQQ); experiment: MST affinity with flHTT-Q73; type: binding; settings: MST, flHTT-Q73, protein 500 nM; read-out: Kd
T1 construct: LC3B, full-length mHTT (flHTT-Q73) and full-length HTT-Q23 (flHTT-Q23); protein A (N, cleaved yes); made in house; host or cells: human embryonic kidney E293 cells

LC3B = target: T2, LC3B (Homo sapiens, UniProt Q9GZQ8); experiment: MST affinity with LC3B; type: binding; settings: MST, LC3B, protein 500 nM; read-out: Kd
T2 construct: His8 (N, cleaved yes); GST (from pGEX-6P1) (N, cleaved yes); made in house; host or cells: E. coli BL21(DE3)pLsyS

wtHTT = target: T3, wtHTT (Mus musculus, UniProt P42859); experiment: Western-blot wtHTT level in primary cultured cortical neurons; type: cell-based; settings: Hdh^Q7/Q7 cortical neurons, 2 days
T3 construct: endogenous in cells; host or cells: primary cortical neurons of newborn Hdh Q140/Q7 and Hdh Q7/Q7 mice
Description: Primary cultured cortical neurons: The brains of Hdh^Q140/Q7 and Hdh^Q7/Q7 newborn mice (P0) were dissected, digested, dissociated, and cultured.
(1) The primary cultured Hdh^Q140/Q7 and Hdh^Q7/Q7 mouse cortical neuron cells were treated with the compound for 2 days.

SQSTM1/p62 = SQSTM1/p62 level in mouse cortices after ip injection; type: in vivo; settings: HD mice
Description: Using a method similar to 6.2, Hdh^Q140/Q7 mice were administered with injections. A method similar to 7.1 was used to detect the effects of ip-injection of compounds on other known autophagy selective substrate proteins (SQSTM1/p62) in the cortical tissue of Hdh^Q140/Q7 mice.

[1] = target: T4, binding between HTTexon1-Q25-MBP and LC3B (Homo sapiens, UniProt Q9GZQ8); experiment: In vitro pull-down HTTexon1-Q25-MBP and LC3B; type: biochemical; settings: 1 μM compound 1 or 100 nM compound 4
T4 construct: His8 (N, cleaved yes); GST (from pGEX-6P1) (N, cleaved yes); made in house; LC3B: E. coli BL21(DE3)pLsyS
Description: Incubation was conducted. Then the unbound proteins were removed.
(3) The resin-bound proteins were eluted and analyzed by SDS-PAGE and Western-blots with anti-LC3 antibody (FIG. 22a).

Q53-GFP = experiment: OI-RD affinity reaction parameters with Q53-GFP; type: binding
Source text: (§1) (1) PolyQ-GFP cDNA sequence (expressing Met-polyQ-GFP, wherein polyQ was Q72 or Q25) was synthesized de novo and subcloned into pcDNA vector. […] And the same method was used to obtain cells expressing Q53-GFP, cells expressing Q46-GFP, and cells expressing Q38-GFP.

Q25-GFP [2] = experiment: OI-RD affinity screening with Q25-GFP; type: binding; settings: OI-RD difference images
Source text: as §1

[3] = test system: proteins with expanded polyglutamine (polyQ-GFP); experiment: OI-RD affinity screening with polyQ-GFP proteins; type: binding; settings: OI-RD difference images
Description: To identify compound(s) that can selectively bind to proteins containing expanded polyglutamine, screening was conducted using a method similar to 1.1, except for that the target protein HTTexon1-Q72-MBP in step (1) of 1.1 was replaced with the polyQ-GFP protein prepared in 10.1, and the target protein HTTexon1-Q25-MBP in step (2) of 1.1 was replaced with GFP.

[4] = test system: polyQ-GFP (Q72-GFP, Q25-GFP); experiment: polyQ-GFP level in HEK293T cells by Incucyte fluorescence counting; type: cell-based; settings: Q72-GFP vs Q25-GFP expressing HEK293T cells, 100 nM compound 1, 100 nM compound 3 or 50 nM compound 4, 2 days
Source text: (1) PolyQ-GFP cDNA sequence (expressing Met-polyQ-GFP, wherein polyQ was Q72 or Q25) was synthesized de novo and subcloned into pcDNA vector. It was transfected into HEK293T cells (ATCC, CRL-3216) through forward transfection to obtain Q72-GFP expressing cells and Q25-GFP expressing cells, respectively. And the same method was used to obtain cells expressing Q53-GFP, cells expressing Q46-GFP, and cells expressing Q38-GFP.
The Q72-GFP expressing cells and Q25-GFP expressing cells obtained in step (1) of 10.1 were used. […] Then the level of polyQ-GFP was measured by Incucyte fluorescence counting (FIG. 25).

MBP-ATXN3-Q28 = target: T5, MBP-ATXN3-Q28 (Homo sapiens, UniProt P54252, INS305QQQQQQQQQQQQQQQQQQ); experiment: OI-RD affinity screening with MBP-ATXN3-Q28; type: binding; settings: OI-RD difference images
T5 construct: His8 with TEV protease cleavage site; made in house; host or cells: Escherichia coli Rosetta(DE3)pLsyS
Description: Screening was conducted using a method similar to 1.1, except for that the target protein HTTexon1-Q72-MBP in step (1) of 1.1 was replaced with MBP-ATXN3-Q68 and the target protein HTTexon1-Q25-MBP in step (2) of 1.1 was replaced with MBP-ATXN3-Q28, to obtain compounds that can selectively bind to ATXN3 with abnormally expanded polyQ (MBP-ATXN3-Q68).

[5] = target: T6, wild-type ATXN3 protein (ATXN3-Q27) (Homo sapiens, UniProt P54252, G306R/INS305QQQQQQQQQQQQQQQQQ/V212M); experiment: Western-blot wild-type ATXN3 level in fibroblasts; type: cell-based; settings: 100 nM (compound 4: 50 nM), 2 days
T6 construct: endogenous in cells; host or cells: wild-type fibroblasts (Q27) and/or the normal allele in SCA3 patient fibroblasts
Description: Then the levels of mutant ATXN3 protein (ATXN3-Q74, SEQ ID NO: 2) and wild-type ATXN3 protein (ATXN3-Q27, SEQ ID NO: 7) were determined by Western-blots (FIG. 26). […] Therefore, the compound of the present invention can be used to treat SCA3.

Q72-GFP = experiment: MST affinity with Q72-GFP
Description: (§2) The affinity of the compound with full-length HTT and LC3B was verified with micro thermophoresis (MST) using Monolith NT.115 instrument from NanoTemper Technologies. The reaction buffer was 20 mM HEPES, pH 7.4, 150 mM NaCl.

Q25-GFP [6] = experiment: MST affinity with Q25-GFP
Description: as §2

MBP-ATXN3-Q68 = MBP-ATXN3-Q68 (Homo sapiens, UniProt P54252, INS305QQQQQQQQQQQQQQQQQQQQQQQQQQQQQQQQQQQQQQQQQQQQQQQQQQQQQQQQQQ); experiment: MST affinity with MBP-ATXN3-Q68
Chain of MBP-ATXN3-Q68 (P54252 with tags, fused parts or gaps isoform P54252-4 with the stated changes): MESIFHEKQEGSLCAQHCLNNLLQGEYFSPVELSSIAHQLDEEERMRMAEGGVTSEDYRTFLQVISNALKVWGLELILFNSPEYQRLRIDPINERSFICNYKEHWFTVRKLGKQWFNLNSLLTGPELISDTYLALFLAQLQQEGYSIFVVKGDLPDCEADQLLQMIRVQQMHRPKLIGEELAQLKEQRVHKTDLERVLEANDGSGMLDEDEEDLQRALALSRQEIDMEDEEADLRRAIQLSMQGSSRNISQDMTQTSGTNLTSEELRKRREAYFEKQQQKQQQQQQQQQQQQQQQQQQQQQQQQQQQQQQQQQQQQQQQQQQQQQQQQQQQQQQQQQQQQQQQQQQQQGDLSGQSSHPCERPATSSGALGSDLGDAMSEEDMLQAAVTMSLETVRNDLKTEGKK
Description: as §2

T5 sequence (P54252 with tags, fused parts or gaps isoform P54252-4 with the stated changes): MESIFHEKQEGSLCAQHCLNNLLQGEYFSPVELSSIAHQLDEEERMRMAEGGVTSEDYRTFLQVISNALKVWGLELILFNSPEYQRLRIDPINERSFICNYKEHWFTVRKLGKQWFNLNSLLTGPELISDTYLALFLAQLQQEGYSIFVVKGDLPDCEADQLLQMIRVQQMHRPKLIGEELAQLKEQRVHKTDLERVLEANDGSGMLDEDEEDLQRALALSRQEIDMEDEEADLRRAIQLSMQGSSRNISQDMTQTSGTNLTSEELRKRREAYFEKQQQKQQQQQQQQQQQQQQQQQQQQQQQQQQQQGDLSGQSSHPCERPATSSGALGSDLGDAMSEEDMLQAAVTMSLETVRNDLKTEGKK
T3 sequence (P42859 whole entry): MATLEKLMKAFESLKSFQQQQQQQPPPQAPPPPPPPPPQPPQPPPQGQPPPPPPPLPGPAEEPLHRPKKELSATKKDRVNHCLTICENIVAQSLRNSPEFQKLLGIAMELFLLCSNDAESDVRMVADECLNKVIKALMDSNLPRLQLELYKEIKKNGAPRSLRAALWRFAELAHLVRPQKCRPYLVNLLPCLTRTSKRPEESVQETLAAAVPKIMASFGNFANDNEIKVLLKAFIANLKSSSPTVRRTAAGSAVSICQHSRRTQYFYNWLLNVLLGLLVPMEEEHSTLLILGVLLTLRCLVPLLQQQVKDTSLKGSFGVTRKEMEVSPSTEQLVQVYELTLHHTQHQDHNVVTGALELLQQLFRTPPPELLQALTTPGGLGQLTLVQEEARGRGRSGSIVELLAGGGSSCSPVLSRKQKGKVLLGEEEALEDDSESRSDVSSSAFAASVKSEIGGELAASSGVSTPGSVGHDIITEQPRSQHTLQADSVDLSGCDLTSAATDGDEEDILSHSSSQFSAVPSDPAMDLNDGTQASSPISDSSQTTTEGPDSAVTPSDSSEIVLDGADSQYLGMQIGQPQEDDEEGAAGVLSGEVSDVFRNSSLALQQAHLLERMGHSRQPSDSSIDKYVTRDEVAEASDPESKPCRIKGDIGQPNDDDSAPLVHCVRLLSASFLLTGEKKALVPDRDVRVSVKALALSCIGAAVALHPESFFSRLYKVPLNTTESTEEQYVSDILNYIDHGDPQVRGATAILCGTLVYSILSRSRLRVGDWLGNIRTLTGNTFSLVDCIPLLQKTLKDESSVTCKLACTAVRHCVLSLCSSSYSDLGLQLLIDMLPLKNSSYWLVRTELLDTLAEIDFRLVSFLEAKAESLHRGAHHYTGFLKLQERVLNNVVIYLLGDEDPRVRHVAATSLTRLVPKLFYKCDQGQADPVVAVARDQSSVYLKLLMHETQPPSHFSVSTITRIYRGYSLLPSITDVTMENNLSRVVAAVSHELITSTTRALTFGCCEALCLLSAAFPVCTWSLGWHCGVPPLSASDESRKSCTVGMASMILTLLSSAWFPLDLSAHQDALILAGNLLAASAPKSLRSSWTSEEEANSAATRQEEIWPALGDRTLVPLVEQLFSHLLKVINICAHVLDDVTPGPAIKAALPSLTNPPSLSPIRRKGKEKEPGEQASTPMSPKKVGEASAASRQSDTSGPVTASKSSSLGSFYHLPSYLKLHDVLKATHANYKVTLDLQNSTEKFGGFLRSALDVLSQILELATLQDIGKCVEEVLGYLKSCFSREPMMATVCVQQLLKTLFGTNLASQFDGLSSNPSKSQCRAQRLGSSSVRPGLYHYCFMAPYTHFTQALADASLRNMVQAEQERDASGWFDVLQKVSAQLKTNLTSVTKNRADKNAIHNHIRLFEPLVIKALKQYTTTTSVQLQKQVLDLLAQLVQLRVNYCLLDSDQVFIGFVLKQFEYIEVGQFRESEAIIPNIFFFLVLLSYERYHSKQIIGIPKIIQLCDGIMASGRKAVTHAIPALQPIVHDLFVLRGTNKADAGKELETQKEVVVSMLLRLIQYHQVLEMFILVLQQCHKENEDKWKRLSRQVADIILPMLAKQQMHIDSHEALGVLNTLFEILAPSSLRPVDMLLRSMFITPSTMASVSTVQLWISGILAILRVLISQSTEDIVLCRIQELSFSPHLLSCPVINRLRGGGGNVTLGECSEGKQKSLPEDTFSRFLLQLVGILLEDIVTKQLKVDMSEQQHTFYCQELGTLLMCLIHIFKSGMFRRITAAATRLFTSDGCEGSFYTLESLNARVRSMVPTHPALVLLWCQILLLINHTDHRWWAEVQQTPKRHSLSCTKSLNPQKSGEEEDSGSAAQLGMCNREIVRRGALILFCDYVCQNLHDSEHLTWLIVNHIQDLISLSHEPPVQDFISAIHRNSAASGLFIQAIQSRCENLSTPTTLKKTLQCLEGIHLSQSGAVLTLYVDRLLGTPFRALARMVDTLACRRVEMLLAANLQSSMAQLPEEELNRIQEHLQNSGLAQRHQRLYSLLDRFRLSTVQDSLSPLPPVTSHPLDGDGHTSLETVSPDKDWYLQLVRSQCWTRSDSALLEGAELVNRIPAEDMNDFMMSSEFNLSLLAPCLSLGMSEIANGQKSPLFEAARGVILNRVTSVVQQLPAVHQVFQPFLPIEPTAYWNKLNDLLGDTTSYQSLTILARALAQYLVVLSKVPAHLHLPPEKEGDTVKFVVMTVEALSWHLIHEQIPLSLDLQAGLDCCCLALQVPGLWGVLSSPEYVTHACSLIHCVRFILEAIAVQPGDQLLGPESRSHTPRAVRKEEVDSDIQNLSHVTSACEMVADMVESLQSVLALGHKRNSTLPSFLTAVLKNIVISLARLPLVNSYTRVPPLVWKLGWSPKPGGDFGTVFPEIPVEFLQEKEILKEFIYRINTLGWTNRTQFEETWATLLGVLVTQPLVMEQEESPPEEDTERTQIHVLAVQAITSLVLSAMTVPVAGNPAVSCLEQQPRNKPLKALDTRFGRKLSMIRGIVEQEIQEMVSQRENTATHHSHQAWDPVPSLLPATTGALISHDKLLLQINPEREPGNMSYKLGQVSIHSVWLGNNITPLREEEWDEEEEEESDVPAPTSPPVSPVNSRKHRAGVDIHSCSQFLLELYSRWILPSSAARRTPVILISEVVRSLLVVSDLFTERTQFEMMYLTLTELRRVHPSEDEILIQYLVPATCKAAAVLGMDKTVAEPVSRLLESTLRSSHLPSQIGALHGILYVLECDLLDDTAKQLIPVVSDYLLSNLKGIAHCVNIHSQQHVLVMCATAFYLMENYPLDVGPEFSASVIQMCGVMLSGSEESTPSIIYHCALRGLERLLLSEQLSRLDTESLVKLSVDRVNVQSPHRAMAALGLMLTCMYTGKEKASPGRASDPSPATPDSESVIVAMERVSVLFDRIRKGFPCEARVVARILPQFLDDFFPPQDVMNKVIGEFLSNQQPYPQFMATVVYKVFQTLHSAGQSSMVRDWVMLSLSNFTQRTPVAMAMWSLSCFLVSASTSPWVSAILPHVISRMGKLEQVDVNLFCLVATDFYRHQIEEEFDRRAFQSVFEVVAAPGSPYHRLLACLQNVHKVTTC
T6 sequence (P54252 with tags, fused parts or gaps isoform P54252-1 with the stated changes): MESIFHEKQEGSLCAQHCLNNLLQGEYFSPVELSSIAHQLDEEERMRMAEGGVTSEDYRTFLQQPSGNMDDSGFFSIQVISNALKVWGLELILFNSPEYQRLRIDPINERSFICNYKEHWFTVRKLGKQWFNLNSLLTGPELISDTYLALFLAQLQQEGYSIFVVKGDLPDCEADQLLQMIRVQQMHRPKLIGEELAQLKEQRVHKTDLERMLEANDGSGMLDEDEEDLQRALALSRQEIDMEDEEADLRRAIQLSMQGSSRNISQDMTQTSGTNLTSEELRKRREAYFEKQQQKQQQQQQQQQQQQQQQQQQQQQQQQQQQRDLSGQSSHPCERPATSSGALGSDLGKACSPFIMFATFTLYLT

## O=C1Nc2ccc(I)cc2/C1=C/c1cc(Br)c(O)c(Br)c1 [compound 1, GW5074]
flHTT-Q73
  Kd: 3.46 µM
LC3B
  Kd: 4.76 µM
wtHTT
  wtHTT levels: did not reduce wtHTT levels
SQSTM1/p62
  level of SQSTM1/p62 in the cortices: did not change
[1]
  binding between HTTexon1-Q25-MBP and LC3B: but not between HTTexon1-Q25-MBP and LC3B
Q53-GFP
  Kd: 0.025 µM
  Koff: 6.3e-05 s⁻¹
  Kon: 0.000151 min/nM
Q25-GFP [2]
  binding to Q25-GFP: did not bind
[3]
  binding affinity to proteins with 38 or more glutamine repeats: showed certain binding affinity
[4]
  level of proteins containing expanded polyglutamine in cells (polyQ-GFP): can selectively reduce the level
MBP-ATXN3-Q28
  binding to MBP-ATXN3-Q28: did not bind
[5]
  wild-type ATXN3 protein level: no decrease in wild-type ATXN3 protein level was observed
Q72-GFP
  Kd: 3 µM
Q25-GFP [6]
  binding affinity to Q25-GFP: no binding affinity
MBP-ATXN3-Q68
  Kd: 6.32 µM
